Laboratory results: PMC8712301, “Novel CYP11B-ligand [^123/131I]IMAZA as promising theranostic tool for adrenocortical tumors: comprehensive preclinical characterization and first clinical experience” (European Journal of Nuclear Medicine and Molecular Imaging, 2021)
Values belong to the compound of their own block, whether it stands above or below them.

Legend:
[1] = system: advanced ACC; experiment: Diagnostic imaging and biokinetics with [123I]IMTO and [123I]IMAZA in patients with advanced ACC; assay type: in vivo, human; set-up: AUC (time integral of the uptake function): concentration or dose not given beside the values
Method: Three patients (#1, #2, and #3) were investigated by [^123I]IMAZA (administered doses, 117, 163, and 182 MBq, respectively) and subsequently by [^123I]IMTO (176, 169, and 146 MBq, respectively). The time interval between the imaging studies was at least 5 days. Scintigraphic imaging was performed using a Siemens Symbia dual-head gamma camera equipped with medium-energy parallel-hole collimators. Activity concentration was measured in whole blood samples drawn at 2 min, 5 min, 15 min, 1 h, 2.5 h, 5 h, and 23 h after the administration. Plasma activity was analyzed in patient #1.

[2] = system: metastatic ACC; experiment: Dosimetry and endoradiotherapy with [131I]IMAZA in a patient with metastatic ACC; assay type: in vivo, human
Excerpt: Patient #1 had experienced disease progression with a more than fourfold increase in their dominant lesions within only 4 months after a phase of disease stabilization after standard treatment with mitotane and eight courses of combination chemotherapy with etoposide, doxorubicin, and cisplatin. They received therapeutic doses with 28.2 GBq [^131I]IMAZA 1 month and with 30.5 GBq [^131I]IMAZA 7 months after the evaluation with [^123I]IMAZA. Prior to the first treatment, the absorbed dose to the blood was measured with a tracer activity of 72 MBq [^131I]IMAZA as a surrogate for the exposure of the dose-limiting organ, the red bone marrow. The absorbed dose to the blood was estimated from assessments of the activity kinetics in total body and blood up to 48 h when the mean activity concentrations had dropped to 5% of the values at 5 min after the administration in the total body and to 1% in the blood. During therapy, the total body activity retention was measured with a survey meter in the ceiling over the patient’s bed. Gamma camera whole body scans accompanied by blood sampling were acquired starting 4 days post-administration after the first and 2 days after the second therapy until dismissal. SPECT/CT imaging was performed after 4 and 5 days, respectively.
Tumor evaluation was performed by [^18F]FDG PET/CT at baseline and 2, 5, 8, 11, 14, and 21 months after administration of the first treatment dose. Subsequently, the patient declined further follow-up imaging or additional therapeutic interventions.

[3] = system: NCI-H295 cells; experiment: Cellular subfractionation of NCI-H295 cells exposed to 125I-labeled tracers; assay type: cell-based, human
Method: (§1) NCI-H295 cells (n = 250,000 per vial) were incubated with 0.1 MBq of the respective ^125I-labeled tracer at 37 °C, 5% CO2. For the blocking experiment, the cells were co-incubated with etomidate. Aliquots were taken and immediately placed into a 4 °C ice bath. After 5 min, the solution was centrifuged and rinsed twice with PBS/0.5% Tween 80, and the collected rinse solution was measured in a gamma counter. Assays were performed in triplicates. The intracellular distribution of the respective ^125I-labeled inhibitors and the specific binding to mitochondrial membranes were verified using a commercially available kit (Qiagen Qproteome Mitochondria isolation).
(§2) Fig. 3 a In vitro uptake kinetics of [^125I]IMTO, [^125I]IMAZA, [^125I]3, and [^125I]4 in NCI-H295 cells. b Cellular uptake of [^125I]IMTO, [^125I]IMAZA, [^125I]3, and [^125I]4 in NCI-H295 cells with and without co-incubation with etomidate. Cells were incubated with 0.1 MBq of the respective compounds and co-incubated with (0.1 µM, 10 µM, 100 µM) etomidate to monitor the specific uptake (n = 3). c Cellular subfractionation of NCIH295 cells exposed to 0.1 MBq [^125I]IMTO, [^125I]IMAZA, [^125I]3, and [^125I]4 for 30 min at 37 °C. Distribution of the tracer compounds among the respective cellular subfractions

[4] = Metabolic inactivation by human liver microsomes in vitro (radio-HPLC); assay type: in vitro ADME; settings: human liver microsomes, radio-HPLC
Method: Metabolic degradation was determined by co-incubation of the tracers with human liver microsomes (Sigma, M0317). Experiments were conducted in triplicates. Incubation mixtures consisted of liver microsomes (0.2 mg/ml), the respective ^125I-labeled compound (0.1 MBq), MgCl2 (3.3 mM), and NADPH (1.3 mM) in a total volume of 0.6 ml K3PO4 puffer (25 mM, pH 7.2). The reaction was started with the addition of NADPH and incubated at 37 °C. At predefined time points, aliquots were removed, and the reaction was terminated by adding 160 µL ice-cold methanol. After centrifugation (5000 × g, 4 °C for 4 min), the supernatant was analyzed by radio-HPLC (see experimental details and Supplementary Fig. 1 in Supplement).

[5] = system: human adrenocortical and non-adrenocortical tissue cryosections; experiment: Autoradiographic binding to human tissue cryosections
Method: Human tissues were quick frozen in liquid nitrogen to block further biological processes including protein degradation and stored at –80 °C. Frozen samples from adrenocortical carcinoma (ACC; n = 3), aldosterone-producing adenoma (APA; n = 2), and cortisol-producing adenoma (CPA; n = 2), normal adrenal, kidney, and liver were sectioned into 20-µm-thick tissue slices, thaw-mounted onto Superfrost slides (PAP PEN, Zymed® Laboratories) and stored at –80 °C until processing. For the experimental set up, the tissue slices were pre-incubated for 5 min at room temperature with buffer solution (pH 7.4, 50 mM Tris). Afterwards, the slices were directly incubated with TRIS HCl buffer solution containing 2% BSA. After 1-h blocking, slides were treated with 0.1 MBq of the different compounds. As controls, slides were incubated with 0.1 MBq of the compounds in 10 µM of the non-radioactive compound to assess binding specificity. In the following, slides were washed twice with 50 mM Tris HCl buffer solution (pH 7.4). For exposure, samples were placed on Phosphor Imager plates for 30 min in dedicated lead-shielded cassettes. Autoradiographic images were analyzed with a CR35BIO Image plate scanner, and data analysis was performed with Amide software version 0.9.0.
Fig. 5 Ex vivo imaging of normal adrenal gland, adrenocortical tumors, and control tissue (kidney, liver). Autoradiographic visualization of [^125I]IMTO and [^125I]IMAZA accumulation in the normal adrenal gland, in adrenocortical tumors (ACC, APA, CPA), kidney, and liver as control tissue (sections with 20 µm slice thickness) (representative example). […] The red circles show the position of the organs that are not shown in the imaging. A = 0.1 MBq tracer, B = 0.1 MBq tracer plus non-radioactive 10 µM inhibitor

[6] = system: adrenal gland; experiment: Biodistribution in male CD-1 mice; assay type: in vivo; settings: for Uptake in the adrenals: i.v. 0.1 MBq
Method: Six- to 8-week old male CD-1 mice received 0.1 MBq [^125I]IMTO [17] or the ^125I-labeled IMTO-analogues as intravenous injection in the tail vein. At predefined time points, mice were sacrificed (min. n = 5 per time point). Blood and urine were collected, and several organs were excised and weighed, and tracer uptake was determined by measurement in a γ-counter.
Fig. 4 Biodistribution of [^125I]IMTO and the new compounds [^125I]IMAZA, [^125I]3, and [^125I]4 in male CD-1 mice. Mice were injected i.v. with 0.1 MBq of respective compounds. Ex vivo organ dosimetry was performed at predefined time points 15 min, 30 min, 120 min, and 240 min after tracer injection. Results are expressed as percentage of injected dose per gram organ (%ID/g). Exact numbers on uptake in the adrenal as %ID/g for the compounds are given in the supplemental data

[7] = system: NCI-H295 cells; experiment: Cell uptake of 125I-labeled tracers in NCI-H295 cells, with and without etomidate; assay type: cell-based, human; set-up: Intracellular uptake with co-incubation of etomidate: dose or concentration left out as unconfirmed
Method: as §1
as §2, with “were incubated with 0.1 MBq of the respective compounds and co-incubated with (0.1 µM, 10 µM, 100 µM) etomidate to monitor the specific uptake” left out

[8] = patient #1, pre-therapeutic kinetics assessment with [131I]IMAZA
[9] = three patients with advanced ACC
[10] = tumor lesion: patient #1, lesion #1
[11] = tumor lesion: patient #1, lesion #2
[12] = tumor lesion: patient #2, lesion #1
[13] = tumor lesion: patient #3, lesion #1
[14] = tumor lesion: patient #3, lesion #2

SMILES: C[C@H](c1ccc([131I])cc1)n1cncc1C(=O)N1CCC1 [[^131I]IMAZA]
Mean blood absorbed dose ([1]; kinetics recalculated for 131I from 123I diagnostics in patients): 0.03 Gy/GBq
Long-term disease stabilization (progression-free survival) ([2]; patient #1, after first treatment): 21 months
Survival (overall survival) ([2]; patient #1, after initial endoradiotherapy): 30 months
Absorbed dose for both the liver and the kidney ([2]; patient #1, estimated): below 0.2 Gy/GBq
Absorbed dose to the blood ([2]; patient #1, first therapy with 28.2 GBq): 1.1 Gy
Activity giving an absorbed dose to the blood of 2 Gy ([2]; patient #1, pre-therapeutic kinetics assessment): 63 GBq
Absorbed dose to the blood [2, 8]: 0.032 Gy/GBq
Residence time in the whole blood [2, 8]: 0.17 h per liter of whole blood
Residence time in the total body ([2]; patient #1, pre-therapeutic kinetics assessment with tracer activity): 10.9 h

SMILES: C[C@H](c1ccc([125I])cc1)n1cncc1C(=O)N1CCC1 [[^125I]IMAZA]
Subcellular distribution compared with [125I]IMTO ([3]; 30 min): similar
Metabolic stability compared with [125I]IMTO [4]: more than threefold longer half-life
Autoradiographic signal compared with [125I]IMTO ([5]; human adrenocortical tissue): distinctively stronger
Binding to control tissue (liver, kidney) ([5]; human liver n = 2, kidney n = 1): no binding was detected
Binding to ACC, APA, and CPA tissue ([5]; human tissue sections 20 µm, 0.1 MBq tracer, ± 10 µM non-radioactive compound): very strong and specific binding
Uptake in the non-target organs ([6]; male CD-1 mice): extremely low uptake values
Uptake in the adrenals ([6]; male CD-1 mice, 15 min): 710.9 ± 210.5 %ID/g
Uptake in the adrenals ([6]; male CD-1 mice, 30 min): 720.4 ± 169.7 %ID/g
Uptake in the adrenals ([6]; male CD-1 mice, 120 min): 395.7 ± 92.7 %ID/g
Uptake in the adrenals ([6]; male CD-1 mice, 240 min): 275.4 ± 124.1 %ID/g
Uptake at the latest time point, times higher compared to [125I]IMTO ([6]; mice): 10 times
Tracer uptake and target to background ratios compared with [125I]IMTO ([6]; mice biodistribution): higher tracer uptake with better target to background ratios
Intracellular uptake with co-incubation of etomidate ([7]; NCI-H295 cells): 8.6%
Uptake with co-incubation of etomidate ([7]; NCI-H295 cells, highest concentration 100 µM etomidate): almost completely blocked
Intracellular uptake in NCI-H295 cells compared with [125I]IMTO ([7]; at 30 min): highest uptake

AUC (time integral of the uptake function) ([1]; median of five tumor lesions): 0.0024 h/g
effective half-live ([1]; median of five tumor lesions): 11.0 h
uptake ([1]; median of five tumor lesions): 0.011 %/g
Activity concentration in plasma, times higher than in whole blood ([1]; patient #1, hematocrit 35%): 1.16 times
Residence time per liter of whole blood, times higher than for [123I]IMAZA [1, 9]: 3.6 ± 1.5 times
Total body residence time, times higher than for [123I]IMAZA [1, 9]: 2.2 ± 0.2 times
AUC (time integral of the uptake function) [1, 10]: 0.0031 h/g
effective half-live [1, 10]: 11.2 h
uptake ([1]; tumor lesion: patient #1, lesion #1, SPECT/CT, normalised to administered activity): 0.015 %/g
AUC (time integral of the uptake function) [1, 11]: 0.0024 h/g
effective half-live [1, 11]: 11.0 h
uptake ([1]; tumor lesion: patient #1, lesion #2, SPECT/CT): 0.011 %/g
AUC (time integral of the uptake function) [1, 12]: 0.0016 h/g
effective half-live [1, 12]: 12.4 h
uptake ([1]; tumor lesion: patient #2, lesion #1, SPECT/CT): 0.006 %/g
AUC (time integral of the uptake function) [1, 13]: 0.0017 h/g
effective half-live [1, 13]: 8.0 h
uptake ([1]; tumor lesion: patient #3, lesion #1, SPECT/CT): 0.010 %/g
AUC (time integral of the uptake function) [1, 14]: 0.0056 h/g
effective half-live [1, 14]: 10.1 h
uptake ([1]; tumor lesion: patient #3, lesion #2, SPECT/CT): 0.027 %/g
SMILES: COC(=O)c1cncn1[C@H](C)c1ccc([123I])cc1 [[^123I]IMTO, [^123I]iodometomidate]

SMILES: COC(=O)c1cncn1C(C)c1ccc([125I])cc1 (stereo not drawn) [[^125I]IMTO, reference compound]
Accumulation in the cytosolic fraction ([3]; 0.1 MBq, 30 min at 37 °C): 7%
Accumulation in the mitochondrial subfraction ([3]; 0.1 MBq, 30 min at 37 °C): 59.4%
Accumulation in the nuclei, cell debris subfraction ([3]; 0.1 MBq, 30 min at 37 °C): 33.6%
Uptake in the adrenals ([6]; male CD-1 mice, 15 min): 491.2 ± 170.3 %ID/g
Uptake in the adrenals ([6]; male CD-1 mice, 30 min): 321.3 ± 170.6 %ID/g
Uptake in the adrenals ([6]; male CD-1 mice, 120 min): 80.5 ± 43.7 %ID/g
Uptake in the adrenals ([6]; male CD-1 mice, 240 min): 27.4 ± 25.9 %ID/g
Intracellular uptake with co-incubation of etomidate ([7]; NCI-H295 cells): 28.2%
Intracellular uptake in NCI-H295 cells ([7]; after 30 min, 0.1 MBq tracer, 37 °C): 36.4%
